Where a name gives a salt, the structure may show the parent alone. Read-outs that look alike come from different tables or passages of the source.
Assays:
human α3β4-nAChR [1] = target: T1, human α3β4-nAChR (Homo sapiens, UniProt P30926+P32297); assay: membrane potential dye assay, SH-EP1-α3β4-nAChR cells; format: cell-based
T1 construct: expressed in transfected cells
Method: (§1) Concordance between replicates was assessed using linear regression.

human α6/3β2β3-nAChR [2] = target: T2, human α6/3β2β3-nAChR (Homo sapiens, UniProt P17787+P32297+Q05901+Q15825); assay: membrane potential dye assay, SH-EP1-α6/3β2β3-nAChR cells; format: cell-based
T2 construct: expressed in transfected cells
Method: as §1

human α4β2-nAChR [3] = target: T3, human α4β2-nAChR (Homo sapiens, UniProt P17787+P43681); assay: cell-based
human α3β4-nAChR [4] = target: T1, human α3β4-nAChR; assay: 86Rb+ efflux orthogonal assay, SH-EP1-α3β4-nAChR cells; format: cell-based; settings: 10 μM; validated = reduced specific efflux by > 3x SD vs no-drug control
Method: (§2) Cells were grown to confluence in 24-well plates (Falcon; 500 μl volume per well). The evening before each assay was to be performed, the medium was removed and replaced with 250 μl per well of complete medium supplemented with ~350,000 cpm of ^86Rb^+ (NEN; counted at 40% efficiency using Cerenkov counting and the Packard TriCarb 1900 Liquid Scintillation Analyzer). This allowed overnight loading of cells with tracer.
(§3) Determinations of antagonist efficacy were performed in triplicate in each plate, and each antagonist was tested in three separate experiments. […] Specific efflux was then taken as the difference in control samples between total and non-specific ^86Rb^+ efflux, and was used to calculate the efficacy of blocking specific efflux by the test compounds.
(§4) Fig. 4. Validation and specificity testing of HTS antagonist hits using an orthogonal assay. […] (A) All plates were normalized to internal maximum and minimum controls, as described in the Materials and Methods section. […] Activity measured at α3β4-nAChR is shown with blue symbols, that at α4β2-nAChR with red symbols, and that at α6/3 β2 β3-nAChR with green symbols. Dashed lines are color-matched to data symbols and designate the 3 X SD thresholds above the no-antagonist controls, used to determine validation of antagonist activity in each of the assays.

human α6/3β2β3-nAChR [5] = target: T2, human α6/3β2β3-nAChR; assay: 86Rb+ efflux orthogonal assay, SH-EP1-α6/3β2β3-nAChR cells; format: cell-based; settings: 10 μM; validated = reduced specific efflux by > 3x SD vs no-drug control
Method: as §2, §3, §4

human α4β2-nAChR [6] = target: T3, human α4β2-nAChR; assay: 86Rb+ efflux orthogonal assay, SH-EP1-α4β2-nAChR cells; format: cell-based; parameters: expressed in transfected cells; settings: 10 μM; validated = reduced specific efflux by > 3x SD vs no-drug control
Method: Cells were grown to confluence in 24-well plates (Falcon; 500 μl volume per well). The evening before each assay was to be performed, the medium was removed and replaced with 250 μl per well of complete medium supplemented with ~350,000 cpm of ^86Rb^+ (NEN; counted at 40% efficiency using Cerenkov counting and the Packard TriCarb 1900 Liquid Scintillation Analyzer). This allowed overnight loading of cells with tracer. The assay was based on a proven, routine ^86Rb^+ efflux assay “flip-plate” protocol that includes 1500 nM atropine to exclude possible contributions of muscarinic acetylcholine receptors, with test compound or control solutions applied for 30 s.
Determinations of antagonist efficacy were performed in triplicate in each plate, and each antagonist was tested in three separate experiments. […] Both determinations of non-specific efflux were equivalent. Specific efflux was then taken as the difference in control samples between total and non-specific ^86Rb^+ efflux, and was used to calculate the efficacy of blocking specific efflux by the test compounds.
Fig. 4. Validation and specificity testing of HTS antagonist hits using an orthogonal assay. […] Activity measured at α3β4-nAChR is shown with blue symbols, that at α4β2-nAChR with red symbols, and that at α6/3 β2 β3-nAChR with green symbols. […]

[7] = read-out: pre-determined EC90 value
[8] = IC50, 5 min incubation, in the presence of 500nM of nicotine
[9] = IC50, 10 min incubation, in the presence of 500nM of nicotine
[10] = IC50, 20 min incubation, in the presence of 500nM of nicotine
[11] = IC50, 25 min incubation, in the presence of 500nM of nicotine
[12] = average IC50 across all time-points, averaged over 5-30 min reads, nicotine at EC90

T3 sequence (P43681 29-627 limits assumed): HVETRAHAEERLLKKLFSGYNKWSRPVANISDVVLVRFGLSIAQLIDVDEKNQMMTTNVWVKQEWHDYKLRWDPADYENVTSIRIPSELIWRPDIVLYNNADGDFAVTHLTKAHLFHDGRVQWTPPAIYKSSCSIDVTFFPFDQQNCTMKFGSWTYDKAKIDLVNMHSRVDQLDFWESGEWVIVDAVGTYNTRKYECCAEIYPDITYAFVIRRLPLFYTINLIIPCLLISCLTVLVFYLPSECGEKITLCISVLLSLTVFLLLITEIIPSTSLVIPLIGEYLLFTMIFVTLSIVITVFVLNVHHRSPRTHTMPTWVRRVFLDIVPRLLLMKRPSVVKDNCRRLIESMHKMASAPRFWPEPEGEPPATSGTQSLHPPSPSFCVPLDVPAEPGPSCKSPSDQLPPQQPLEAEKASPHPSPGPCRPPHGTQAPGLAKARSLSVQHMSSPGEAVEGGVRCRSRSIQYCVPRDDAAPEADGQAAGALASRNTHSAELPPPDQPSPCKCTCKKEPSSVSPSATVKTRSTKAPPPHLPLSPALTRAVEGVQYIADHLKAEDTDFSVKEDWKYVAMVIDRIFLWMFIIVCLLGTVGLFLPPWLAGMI
T3 sequence (P17787 26-502): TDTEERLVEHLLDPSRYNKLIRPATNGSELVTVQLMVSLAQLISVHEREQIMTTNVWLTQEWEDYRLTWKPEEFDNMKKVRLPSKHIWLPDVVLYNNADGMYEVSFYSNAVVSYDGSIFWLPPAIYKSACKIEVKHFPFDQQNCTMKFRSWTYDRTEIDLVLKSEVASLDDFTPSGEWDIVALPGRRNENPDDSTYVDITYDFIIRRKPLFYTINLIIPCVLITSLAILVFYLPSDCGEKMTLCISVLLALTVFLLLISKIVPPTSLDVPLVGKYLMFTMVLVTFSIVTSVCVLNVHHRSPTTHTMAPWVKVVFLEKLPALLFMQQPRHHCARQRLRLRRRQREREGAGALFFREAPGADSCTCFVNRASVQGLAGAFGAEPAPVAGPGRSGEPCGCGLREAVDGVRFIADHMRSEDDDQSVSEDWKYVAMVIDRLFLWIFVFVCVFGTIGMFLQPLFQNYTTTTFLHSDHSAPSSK
T2 sequence (Q15825+P32297 fused with the stated changes): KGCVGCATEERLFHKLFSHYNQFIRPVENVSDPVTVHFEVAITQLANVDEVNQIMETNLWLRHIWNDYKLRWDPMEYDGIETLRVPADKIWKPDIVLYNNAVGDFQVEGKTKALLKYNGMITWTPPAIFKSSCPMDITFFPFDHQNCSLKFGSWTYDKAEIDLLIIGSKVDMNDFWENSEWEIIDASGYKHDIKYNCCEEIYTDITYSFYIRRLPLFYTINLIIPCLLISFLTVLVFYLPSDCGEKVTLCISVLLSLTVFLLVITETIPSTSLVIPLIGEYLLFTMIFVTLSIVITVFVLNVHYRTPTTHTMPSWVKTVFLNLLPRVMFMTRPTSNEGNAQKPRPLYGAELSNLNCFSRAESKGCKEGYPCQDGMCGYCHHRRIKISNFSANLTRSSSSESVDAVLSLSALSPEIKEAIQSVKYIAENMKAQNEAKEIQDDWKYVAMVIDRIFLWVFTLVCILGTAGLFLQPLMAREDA
T2 sequence (P17787 26-502): as the sequence (P17787 26-502) above
T2 sequence (Q05901 22-458): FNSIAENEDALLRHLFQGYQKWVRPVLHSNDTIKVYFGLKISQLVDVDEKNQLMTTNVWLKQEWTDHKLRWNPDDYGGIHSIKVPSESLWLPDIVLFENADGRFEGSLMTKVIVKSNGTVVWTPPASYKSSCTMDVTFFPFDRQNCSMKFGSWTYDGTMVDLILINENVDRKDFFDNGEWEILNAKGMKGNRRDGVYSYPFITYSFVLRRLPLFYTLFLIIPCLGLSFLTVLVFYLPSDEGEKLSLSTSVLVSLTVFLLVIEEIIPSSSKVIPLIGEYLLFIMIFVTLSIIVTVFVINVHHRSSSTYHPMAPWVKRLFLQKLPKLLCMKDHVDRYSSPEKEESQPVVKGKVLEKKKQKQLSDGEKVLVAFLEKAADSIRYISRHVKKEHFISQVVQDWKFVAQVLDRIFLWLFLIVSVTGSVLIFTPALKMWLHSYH
T1 sequence (P32297 32-505): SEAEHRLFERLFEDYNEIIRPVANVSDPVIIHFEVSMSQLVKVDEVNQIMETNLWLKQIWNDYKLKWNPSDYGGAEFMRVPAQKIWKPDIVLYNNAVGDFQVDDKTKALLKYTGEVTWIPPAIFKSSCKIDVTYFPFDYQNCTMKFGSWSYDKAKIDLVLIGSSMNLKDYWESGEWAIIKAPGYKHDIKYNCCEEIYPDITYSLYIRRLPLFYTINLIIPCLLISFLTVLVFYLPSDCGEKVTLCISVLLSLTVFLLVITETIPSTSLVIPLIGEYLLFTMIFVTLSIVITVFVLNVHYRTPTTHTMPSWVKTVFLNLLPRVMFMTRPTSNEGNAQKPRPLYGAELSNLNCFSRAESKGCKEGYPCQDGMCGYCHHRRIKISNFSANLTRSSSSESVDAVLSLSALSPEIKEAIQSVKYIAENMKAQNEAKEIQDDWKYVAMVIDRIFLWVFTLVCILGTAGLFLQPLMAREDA
T1 sequence (P30926 22-498): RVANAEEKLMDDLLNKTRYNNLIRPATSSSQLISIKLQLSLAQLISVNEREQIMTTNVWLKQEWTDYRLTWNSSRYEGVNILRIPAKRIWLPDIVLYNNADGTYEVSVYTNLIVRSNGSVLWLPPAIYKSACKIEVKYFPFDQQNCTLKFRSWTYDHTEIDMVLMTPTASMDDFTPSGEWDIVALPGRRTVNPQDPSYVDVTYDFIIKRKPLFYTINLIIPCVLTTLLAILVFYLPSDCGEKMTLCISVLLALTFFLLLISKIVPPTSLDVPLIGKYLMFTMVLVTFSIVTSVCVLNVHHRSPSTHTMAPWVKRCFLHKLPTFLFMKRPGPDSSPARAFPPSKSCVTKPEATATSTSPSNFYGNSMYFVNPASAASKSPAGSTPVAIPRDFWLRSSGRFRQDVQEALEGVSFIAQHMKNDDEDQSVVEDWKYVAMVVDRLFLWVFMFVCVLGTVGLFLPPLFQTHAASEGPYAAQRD

Q: What does the source list for CN1CCC[C@H]1c1cccnc1 [nicotine, (−)-nicotine]?
A: EC90 (human α3β4-nAChR [1]; [7]): 20 µM; EC90 (human α6/3β2β3-nAChR [2]; [7]): 500 nM; EC90 (human α4β2-nAChR [3]; [7]): 500 nM

Q: How did the IC50 (human α4β2-nAChR [3]; IC50) turn out when C[N+](C)(C)CCCCCC[N+](C)(C)C [hexamethonium] was run?
A: 71600 nM

Q: What about the IC50 (human α4β2-nAChR [3]; [8]) of the same compound?
A: 98300 nM

Q: What about the IC50 (human α4β2-nAChR [3]; [9]) of the same compound?
A: 100000 nM

Q: What about the IC50 (human α4β2-nAChR [3]; [10]) of the same compound?
A: 47900 nM

Q: And the IC50 (human α4β2-nAChR [3]; [11])?
A: 38900 nM

Q: What about the IC50 (human α4β2-nAChR [3]; IC50, 30 min incubation, in the presence of 500nM of nicotine) of the same compound?
A: 37400 nM

Q: And the IC50 (human α4β2-nAChR [3]; [12])?
A: 65800 ± 28800 nM

Q: CNC1(C)C2CCC(C2)C1(C)C (stereo not drawn) [mecamylamine] was tested. Which IC50 (human α6/3β2β3-nAChR [2]; in the presence of 500 nM nicotine (EC90), read-out: IC50 (α6/3β2β3), Fig. 2D) did it give?
A: 1670 nM

Q: What about the IC50 (human α6/3β2β3-nAChR [2]; nicotine at EC90, read-out: average IC50, comparison across subtypes) of the same compound?
A: 1670 nM

Q: And the “antagonist hit identified in HTS and validated by 86Rb+ efflux” value (shortened to “antagonist hit identified”) (human α3β4-nAChR [4])?
A: identified and validated as a hit

Q: What about the “antagonist hit identified” value (human α6/3β2β3-nAChR [5]) of the same compound?
A: identified and validated as a hit

Q: What about the IC50 (human α4β2-nAChR [3]; IC50) of the same compound?
A: 896 nM

Q: What about the IC50 (human α4β2-nAChR [3]; IC50 (α4β2), Fig. 2D, in the presence of 500 nM nicotine (EC90), subtype comparison) of the same compound?
A: 537 nM

Q: What about the IC50 (human α4β2-nAChR [3]; [8]) of the same compound?
A: 2250 nM

Q: What about the IC50 (human α4β2-nAChR [3]; [9]) of the same compound?
A: 1090 nM

Q: And the IC50 (human α4β2-nAChR [3]; [10])?
A: 919 nM

Q: What about the IC50 (human α4β2-nAChR [3]; [11]) of the same compound?
A: 983 nM

Q: And the IC50 (human α4β2-nAChR [3]; average IC50, comparison across subtypes, nicotine at EC90)?
A: 540 nM

Q: And the IC50 (human α4β2-nAChR [3]; [12])?
A: 1210 ± 520 nM

Q: And the “antagonist hit identified” value (human α4β2-nAChR [6])?
A: identified and validated as a hit

Q: Which “antagonist hit call in pilot screen” value (human α3β4-nAChR [1]; test compound 10 μM with 20 μM nicotine (EC90), hit = signal below mean - 3 SD) does the source give for CNCCC=C1c2ccccc2CCc2ccccc21 [nortriptyline hydrochloride] here?
A: identified as a hit
